# In publication PMC12040169 (PLOS Biology, 2025):
# Test: in vitro
# Details: human, hela cells, % viability
row,Compound,"viability at 28.5 h, 10 µM [%]"
1,Cn1cc(C(=O)NCc2ccccc2)c2ccccc21 [CBK200196],72.9
2,O=S(=O)(NCCc1nc2ccccc2[nH]1)c1ccc(Cl)c(Cl)c1 [CBK264416],93.5
3,CC(C)CCN1CCC2CN(CCCC(c3ccc(F)cc3)c3ccc(F)cc3)CCN2C1=O (stereo not drawn) [CBK024898C],102
4,CCCCN1CC(=O)C(c2nc3ccccc3[nH]2)=C1N [CBK287777],93.7
5,O=C(NNC(=O)c1cc2ccccc2cc1O)Nc1cccc([N+](=O)[O-])c1 [CBK266882],101
6,O=C(NC1=NC2CCCCC2N1)c1ccccc1 (stereo not drawn) [CBK266354],103
7,Cn1c(SCC(=O)Nc2ccc(Br)cc2C(F)(F)F)nnc1-c1ccncc1 [CBK265905],84.4
8,Cc1csc(C(Cc2ccsc2)NC(=O)C2CCOCC2)n1 (stereo not drawn) [CBK285047],102
9,Nc1nc(NCCOc2ccccc2Cl)cc(C2CC(N)C2)n1 (stereo not drawn) [CBK306825],75.2
10,O=C1CC(SCCc2nc3ccccc3[nH]2)C(=O)N1c1ccc(F)cc1 (stereo not drawn) [CBK267500],88.8
11,CN(C)CCCN1C(=O)C(O)=C(C(=O)c2cccs2)C1c1cccnc1 (stereo not drawn) [CBK264511],88.2
12,Cc1cn(C[C@H](NC(=O)c2cccc(F)c2)C(=O)O)c(=O)[nH]c1=O [CBK289667],109
13,Cc1ccc(S(=O)(=O)NC(C)C(=O)Nc2cc(C(F)(F)F)ccc2Cl)cc1 (stereo not drawn) [CBK266546],109
14,Cc1nn([C@H]2C[C@@H](O)[C@@H](CO)O2)c(=O)[nH]c1=O [CBK201185],97.3
15,Cc1cc(O)cc(C2CCCN(C(=O)c3cccc(F)c3)C2)n1 (stereo not drawn) [CBK283440],100
16,CCOC(=O)C(C)NC(=O)c1cc2ccc(F)cc2[nH]1 (stereo not drawn) [CBK283214],107
17,COc1cc(NC(=O)Cn2cnc3c2c(=O)n(C)c(=O)n3C)c(OC)cc1Cl [CBK133231],99.2
18,Cc1ccc(S(N)(=O)=O)cc1-c1nnc2c3ccccc3c(C)nn12 [CBK266680],104
19,O=CN1CCc2c([nH]c3ccccc23)C12CCCN(Cc1ccc(C(F)(F)F)cc1)C2 (stereo not drawn) [CBK039587],92.6
20,O=C1CC(SCCc2nc3ccccc3[nH]2)C(=O)N1c1cccc(F)c1 (stereo not drawn) [CBK266671],94.6
21,O=S(=O)(Nc1nccnc1N1CCN(c2cnccn2)CC1)c1ccc(Cl)cc1 [CBK049664],88.1

row,Compound,"viability at 28.5 h, 10 µM [%]"
1,Cc1cccnc1NC(=O)COc1ccc(Cl)cc1 [CBK262175],106
2,O=C(O)CCC(=O)N1CCCc2ccccc21 [CBK051167],92.6
3,CSc1nc(N)n(-c2cc(C(F)(F)F)cc(C)n2)n1 [CBK005941],89.9
4,O=C1CCN(Cc2ccccc2)CCN1C(=O)C1CCCC1 [CBK284829],85.7
5,CC(=O)NS(=O)(=O)c1ccc(-c2ccc(/C=C(/C#N)c3nc4ccc(C)cc4[nH]3)o2)cc1 [CBK264771],109
6,N#Cc1ccc(N2CCCC(N3CCNC3=O)C2)c(C(F)(F)F)c1 (stereo not drawn) [CBK305162],84.9
7,COc1ccc(NC(=O)Nc2nn(Cc3c(F)cccc3Cl)cc2Cl)cc1OC [CBK267019],89.3
8,O=C(CCCN[C@H]1CC[C@](O)(c2ccc(F)cc2)CC1)c1ccc(F)cc1 [CBK023258C],90.7
9,COc1cc(CNn2c(C)nnc2S)cc(Br)c1OCC(=O)NC(C)(C)C [CBK266575],112
10,Cc1cc(NC(=O)CN(C)CCNC(=O)C2CCCC2)no1 [CBK305237],84.9
11,COc1ccc2[nH]c(=O)c(CN(CCN(C)C)C(=S)Nc3ccc(F)cc3)cc2c1 [CBK135011],97.1
12,O=C(c1nccs1)C1CCN(C(=O)Cc2ccccc2F)CC1 [CBK284161],87.3
13,CC(=O)Nc1nc(OCCN2CCCC2=O)cnc1/C=C\c1ccccc1 [CBK145371],84.9
14,CCN(Cc1ccncc1)C(=O)NCCOc1ccccc1 [CBK155148],100
15,CCCCCC(=O)N[C@H]1CCC[C@H]1C(=O)O [CBK007807],118
16,CN(C)C[C@@H]1Cc2cccc3cccc(c23)[C@@H]1O [CBK005877C],111
17,O=C(O)c1ccc2c(c1)C(=O)N(c1cccc(/C=C/C(=O)c3cccc(N4C(=O)c5ccc(C(=O)O)cc5C4=O)c3)c1)C2=O [CBK261178],89.8
18,Fc1cccc(-c2nnc(SCc3nc4ccccc4[nH]3)n2-c2ccccc2)c1 [CBK263256],95.3
19,Fc1ccc(-c2cncc(NCCCN3CCOCC3)n2)c(F)c1 [CBK065867],91.3
20,CC(CNCC1CCCO1)COc1cccc(Cl)c1 (stereo not drawn) [CBK058789],96
21,Cc1cc(OCC(=O)NN2CCN(C)CC2)ccc1[N+](=O)[O-] [CBK268136],99.8

row,Compound,"viability at 28.5 h, 10 µM [%]"
1,CCN(CC)CCNc1nc2cc(Cl)ccc2[nH]1 [CBK262453],102
2,CN(C)CCCC(=O)Nc1ccc2ncccc2c1 [CBK159824],83.4
3,c1ccc(-c2csc(Nc3cccnc3)n2)nc1 [CBK267184],107
4,NS(=O)(=O)c1ccc(CNC(=O)c2cc(-c3cccnc3)nc3ccc(Cl)cc23)cc1 [CBK267727],83.8
5,O=S(=O)(c1ccc(Cl)cc1)N1CCN(S(=O)(=O)N2CCOCC2)CC1 [CBK266878],92.9
6,Cc1ccc(NC(=O)N2CCn3cccc3C2c2cccnc2)cc1 (stereo not drawn) [CBK287733],87.1
7,O=C(CN(c1cccc(Cl)c1)S(=O)(=O)c1ccccc1)Nc1cccc2cccnc12 [CBK263270],87.9
8,COc1cc(NS(=O)(=O)c2ccc(NC(=O)c3cccnc3)cc2)ncn1 [CBK268156],93
9,Cc1ccnn1CCC(=O)N1CCCC1c1nc2ccccc2[nH]1 (stereo not drawn) [CBK285178],110
10,CN1CCC(N[C@H]2CC(C)(C)[C@@H]3C[C@@](C)(O)CC[C@]23CCC(=O)N2CCOCC2)CC1 [CBK289040],97.2
11,COc1ccc(-c2cc(C(=O)OCc3ccccn3)c3ccccc3n2)cc1 [CBK296114],108
12,COc1ccc(-c2cnc(N3CCOCC3)c3nccn23)cc1 [CBK091285],87.2
13,COc1ccc(C)cc1NC(=O)CSc1nnc(-c2ccccc2Cl)n1-c1ccccc1 [CBK267538],82.9
14,Nc1ccc(-c2cncc(N3CCN(c4ccncc4)CC3)n2)cc1 [CBK065681],97
15,CCOC(=O)CN1CCC(Oc2nccnc2OC2CCCCC2)CC1 [CBK082867T],106
16,FC(F)(F)c1ccnc(OCc2cccnc2)c1 [CBK115784],99.6
17,CN(C)CCNC(=O)c1cccc(-c2cncc(Nc3cccc(Cl)c3)n2)c1 [CBK065229],104
18,Cc1c(C(=O)O)sc2nc(SCC(=O)NCc3ccccc3)[nH]c(=O)c12 [CBK287609],94.2
19,CCc1nccn1CC(=O)NCC(C)n1nc(C)cc1C (stereo not drawn) [CBK281638],80.4

# Same assay, conditions: human, hela cells, % viability, bulk resorufin, single well
row,Compound,"viability at 28.5 h, 10 µM [%]"
1,O=C1NC(=O)N(Cc2ccco2)C(=O)/C1=C\c1ccc(-c2ccc(Cl)c(C(=O)O)c2)o1 [CBK263937],97.9
2,CSc1cc(C)c2c(c1)COC1(CCN(C(=O)c3ccco3)CC1)O2 [CBK061106],92.6
